From US7799747B2, “Method of reducing surfactant damage using compositions comprising benefit agents of defined high polarity” (Conopco, Inc., priority 2005, dated 2010)

Key:
[1] = system: pig skin; assay: HPLC test for surfactant deposition onto pig skin after wash; conditions: SDS measured in combination with the benefit agent
[2] = target: BSA (Bovine Serum Albumin) (Bos taurus, UniProt P02769); assay: Conductivity test: surfactant binding to BSA protein; conditions: 10% SDS with 10% oil (1:1), 0.5% BSA in 0.02M acetate buffer pH~5.2, room temperature
BSA (Bovine Serum Albumin), sequence (P02769 25-607): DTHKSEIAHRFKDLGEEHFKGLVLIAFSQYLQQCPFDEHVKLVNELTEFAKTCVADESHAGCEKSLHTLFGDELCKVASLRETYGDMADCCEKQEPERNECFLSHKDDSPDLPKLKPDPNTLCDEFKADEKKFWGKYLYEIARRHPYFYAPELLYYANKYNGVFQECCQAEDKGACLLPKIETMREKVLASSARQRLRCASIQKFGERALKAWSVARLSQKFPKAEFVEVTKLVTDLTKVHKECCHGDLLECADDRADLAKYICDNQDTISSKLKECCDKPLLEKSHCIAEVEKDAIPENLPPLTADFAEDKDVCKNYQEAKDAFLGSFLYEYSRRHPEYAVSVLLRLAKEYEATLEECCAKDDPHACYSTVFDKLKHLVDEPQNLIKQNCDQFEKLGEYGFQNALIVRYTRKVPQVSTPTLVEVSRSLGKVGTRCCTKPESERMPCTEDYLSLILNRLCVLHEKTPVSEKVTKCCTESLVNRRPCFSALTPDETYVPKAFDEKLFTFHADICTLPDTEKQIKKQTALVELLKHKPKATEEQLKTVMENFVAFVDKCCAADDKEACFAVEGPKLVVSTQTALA
Experimental: Conductance measurements were carried out at room temperature by use of a Thermo conductivity meter, model Orion 150+. Routinely, the titrations were performed by adding a controlled amount of 10% of stock surfactant solution under magnetic stirring into the 0.5% BSA (Bovine Serum Albumin) in 0.02M acetate buffer at pH˜5.2. Values of CMC (critical micellization concentration), CAC (critical aggregation concentration) and protein saturation point (PSP) were defined by the changing of the slope of the conductivity vs. surfactant concentration plots. The number of surfactants binding to each protein can be calculated by: {[PSP]−[CAC]}/{[protein]/Mwprotein}, where [protein] is the protein concentration.
In order to show the effect of benefit agent having different polarity on binding to protein molecule (a reflection of the harshness of surfactant; more surfactant binding to protein equal harsher and more damage expected), applicants tested surfactant binding of (1) surfactant alone and (2) of surfactant in combination with various oils/cosolvents (at 1:1 surfactant to oil ratio) to see level of (how many) surfactants binding per protein molecule (e.g., BSA) at saturation. The tests were done using conductivity test described in protocol and results are set forth below in Table 1.
Applicants conducted same test as in Examples 1 to 10, but used SLES/CAPB surfactant system instead of SDS.

[3] = target: BSA (Bos taurus, UniProt P02769); assay: Micro-DSC for protein denaturation; conditions: denaturation enthalpy approaching zero, FIG. 5
BSA, sequence (P02769 25-607): as above
Experimental: 1.2% of BSA acetate buffer solution was prepared (pH 5.2, IS 0.02). […] Then the BSA acetate solution was titrated with either oil, or surfactant, or oil/surfactant at 1:1 ratio. After each titration, a DSC measurement was performed.

Row | SMILES | SDS deposition versus SDS alone (FIG. 1) [1] | Saturated binding: No. of surfactant per BSA at saturation [2] | ratio surfactant to protein at which BSA is fully denatured at room temperature [3]
1 | CCCCCCCCCCCC [dodecane] | deposition was about the same or higher | – | –
2 | CCCCCCCCCCCCOS(=O)(=O)[O-].[Na+] [10% SDS, Sodium dodecyl sulfate] | – | 220 | about 1.2
